≈ marks a conversion by molar mass, not a printed value.

What is called MIC is the lowest concentration found to suppress growth.

The subject of this experiment is Mycobacterium tuberculosis. The experiment can be described thus: Antitubercular activity against Mycobacterium tuberculosis H37Rv. In kind it is functional.
`CCCCCCCCCCCCCCCCCC(=O)NCCCN(C[C@H]1OC(O)[C@H](O)[C@@H](O)[C@H]1O)C(=O)CCCCCCCCCCCCCCCCC` (stereo partly specified) had an MIC above 50 µg/mL.
In the case of `CCCCCCCCCCCCCCCC(=O)NCCCN(C[C@H]1O[C@@H]2OC(C)(C)O[C@@H]2[C@H]2OC(C)(C)O[C@H]21)C(=O)CCCCCCCCCCCCCCC` it was above 50 µg/mL.
On to `CCCCCCCCCCCCCCCC(=O)NCCN(C[C@H]1O[C@@H]2OC(C)(C)O[C@@H]2[C@H]2OC(C)(C)O[C@H]21)C(=O)CCCCCCCCCCCCCCC`, for which the MIC was above 50 µg/mL.
In the case of `CCCCCCCCCCCCCCCCCC(=O)NCCNC[C@H]1O[C@@H]2OC(C)(C)O[C@@H]2[C@H]2OC(C)(C)O[C@H]21` it was below 3.12 µg/mL; in that of `CCCCCCCCCCCCCCCCCC(=O)NCCN(C[C@H]1OC(O)[C@H](O)[C@@H](O)[C@H]1O)C(=O)CCCCCCCCCCCCCCCCC` (stereo partly specified), above 50 µg/mL; in that of `CC1(C)O[C@H]2[C@@H](O1)[C@@H](CNCCO)O[C@@H]1OC(C)(C)O[C@@H]12`, above 50 µg/mL.
In the case of `CCCCCCCCCCCCCCCCCC(=O)NCCCNC[C@H]1O[C@@H]2OC(C)(C)O[C@@H]2[C@H]2OC(C)(C)O[C@H]21` it was 12.5 µg/mL (≈ 21.4 µM).
Turning to `CCCCCCCCCCCCCCCCCC(=O)OCCN(C[C@H]1O[C@@H]2OC(C)(C)O[C@@H]2[C@H]2OC(C)(C)O[C@H]21)C(=O)CCCCCCCCCCCCCCCCC`, the MIC was above 50 µg/mL.
For the molecule `CCCCCCCCCCCCCCCCCC(=O)N(CCO)C[C@H]1O[C@@H]2OC(C)(C)O[C@@H]2[C@H]2OC(C)(C)O[C@H]21`, the minimal inhibitory concentration (MIC) amounted to 25 µg/mL (≈ 43.9 µM).
`CC1(C)O[C@H]2[C@@H](O1)[C@@H](CNCCCN)O[C@@H]1OC(C)(C)O[C@@H]12` registered an MIC above 50 µg/mL.
Turning to `CO[C@H]1/C=C/O[C@@]2(C)Oc3c(C)c(O)c4c(O)c(c(/C=N/N5CCN(C)CC5)c(O)c4c3C2=O)NC(=O)/C(C)=C\C=C\[C@H](C)[C@H](O)[C@@H](C)[C@@H](O)[C@@H](C)[C@H](OC(C)=O)[C@@H]1C` [RIFAMPIN], inhibition of growth (MIC) required 1 µg/mL (≈ 1.22 µM).

Values taken from ChEMBL document CHEMBL1148009, “Synthesis of amphiphilic galactopyranosyl diamines and amino alcohols as antitubercular agents” (2007).
